The text below walks through data of patent US20250304353A1, “ANTIMICROBIAL BOTTLE WITH ANTIMICROBIAL SEAL” (Microban Products Company, priority 2017, published 2025).

For this assay, the system named is Aspergillus niger. The assay is described as follows: Anti-fungal efficacy of polypropylene cap, agar plate method AATCC 30 Part 3 (2017e). In kind it is cell-based. Particulars: injection molded polypropylene cap with 2.0 wt % Microban IF1-5033-050 (0.1 wt % thiabendazole); MEA plates, up to 7 days at about 30° C.; two replicate sub-samples. The method, then:
The anti-fungal efficacy of the polypropylene cap containing thiabendazole was tested. The fungicidal activity was determined using the agar plate method AATCC 30 Part 3 (2017e). Individual plates of Malt Extract Agar (MEA) were inoculated with Aspergillus niger from primary stock cultures held at about 2° C. to about 8° C. and then incubated at about 30° C.±2° C. for up to 7 days to produce mature spores. A spore suspension was prepared from the plates in 10 mL aliquots of sterile distilled water (SDW) and filtered using glass wool. The spore suspension was adjusted using SDW so that it contained ≥10^5 spores mL^−1. Two replicate sub-samples (i.e., the polypropylene cap with thiabendazole) were placed on the surface of individual MEA plates. A 100 μL aliquot of the spore suspension of Aspergillus niger was spread over the surface of both the sub-sample and the surrounding media. The sample plates were incubated for up to 7 days at about 30° C.±2° C. […] An injection molded polypropylene cap treated with 2.0 wt % of Microban IF1-5033-050 (i.e., 0.1 wt % of thiabendazole) was tested with Aspergillus niger.

Molecules are shown by their SMILES.

Turning to `c1ccc2[nH]c(-c3cscn3)nc2c1` [thiabendazole], the “fungal growth (microscopic and/or macroscopic) on sub-sample and surrounding media” value is given as “No surface growth”.
